Laboratory results published in patent US12162858B2, “Quinoline derivatives as inhibitors of AXL/MER RTK and CSF1R” (QURIENT CO., LTD., priority 2018, dated 2024).

Target: CSF1R (Homo sapiens, UniProt P07333)
Experiment: Cellular CSF1R inhibition ELISA (p-CSF1R, M-CSF-induced) using THP-1 cells
Assay type: cell-based
Design: THP-1 cells act as a model for human monocytes; endogenous in cells; host or cells: THP-1
Source text: The normal proto-oncogene c-fms encodes the macrophage growth factor (M-CSF, also known as CSF1) receptor involved in growth, survival, and differentiation along the monocyte-macrophage lineage. THP-1 cells act as a model for human monocytes. It confirms that an increased phosphorylation of CSF1R (p-CSF1R) can be observed, when induced by CSF1R ligand, CSF1.
The THP-1 cells should be maintained from 5×10^5 to 1×10^6 cells/ml in the cell culture flask. After centrifugation, the supernatant is aspirated. The cell pellet is re-suspended with pre-warmed growth medium (RPMI1640, 10% FBS, 0.05 mM 2-Mercaptoethanol) and cells are separated by pipetting 6 times up and down with a 10 ml serological pipette. The cell suspension has to be diluted to a final concentration of 2×10^5 cells per 80 μl with pre-warmed growth medium. 80 μl of cell suspension is added to all wells of plates. Cell-plates are incubated at 37° C./5% CO2. Dissolve compound in 100% DMSO to make 10 mM stock solutions (Aliquots stored in the Nitrogen Cabinet). Dilute 10 mM compounds solutions for 2-fold in 100% DMSO to get 5 mM solutions (10 μl+10 μl DMSO), and then make a 3-fold serial dilution (10 μl+20 μl DMSO) for 10 doses. For reference compounds: Dilute 10 mM compounds solutions for 20-fold in 100% DMSO to get 0.5 mM solutions (2 μl+38 μl DMSO), and then make a 3-fold serial dilution (10 μl+20 μl DMSO) for 10 doses. Transfer 2 μl diluted compounds to 198 μl medium to get solution of 50 μM concentration at top point for compounds and 5 μM for reference compounds. Then transfer 20 μl cpd solution into assay plate (Duplicate wells). The plate is incubated at 37° C./5% CO2 for 24 h. The final concentration of DMSO in all wells is […]. Reconstitute human M-CSF at 50 μg/ml in sterile water. (Aliquots stored in −80° C.). 1:1000 dilute human M-CSF by fresh medium to 50 ng/ml. After 24 h compounds treatment, transfer 25 μl diluted human M-CSF (50 ng/ml) to cell plate according to the plate map. The final concentration of human M-CSF in all wells is 10 ng/ml.
The plates is incubated at 37° C./5% CO2 for 5 min. In the beginning the appropriate amount of lysis buffer complete (100 μL/well) is prepared and stored on ice. After 5 min human M-CSF stimulation, wash plates once with 300 μL ice cold PBS. Then 100 μl lysis buffer is added to each well. The plate is shacked for 40 min at 4° C. Plates can now be stored at −20° C. After equilibrate the micro-well strips at room temperature, break off the required number of micro-wells. Place the micro-wells in the strip holder. Unused micro-wells must be resealed and stored at 4° C. immediately. Add 90 μl of cell lysate to the appropriate well. Seal with tape and press firmly onto top of micro-wells. Incubate the plate for 2 h at 37° C. Gently remove the tape and wash wells 4 times with 1× Wash Buffer, 200 μl each time for each well. Add 100 μl of reconstituted Detection Antibody (green color) to each well. Seal with tape and incubate the plate at 37° C. for 1 h. Repeat wash procedure. Add 100 μl of reconstituted HRP-Linked secondary antibody to each well. Seal with tape and incubate the plate for 30 min at 37° C. Repeat wash procedure. Add 100 μl of TMB Substrate to each well. Seal with tape and incubate the plate for 10 min at 37° C. or 30 min at 25° C. Calculations and Formulas: The following calculations and formulas are used for data analysis using XL Fit software: The curve fitting was made using the Sigmoidal Dose-Response Model (Fit model, 205).

CSF1R, sequence (P07333 20-972): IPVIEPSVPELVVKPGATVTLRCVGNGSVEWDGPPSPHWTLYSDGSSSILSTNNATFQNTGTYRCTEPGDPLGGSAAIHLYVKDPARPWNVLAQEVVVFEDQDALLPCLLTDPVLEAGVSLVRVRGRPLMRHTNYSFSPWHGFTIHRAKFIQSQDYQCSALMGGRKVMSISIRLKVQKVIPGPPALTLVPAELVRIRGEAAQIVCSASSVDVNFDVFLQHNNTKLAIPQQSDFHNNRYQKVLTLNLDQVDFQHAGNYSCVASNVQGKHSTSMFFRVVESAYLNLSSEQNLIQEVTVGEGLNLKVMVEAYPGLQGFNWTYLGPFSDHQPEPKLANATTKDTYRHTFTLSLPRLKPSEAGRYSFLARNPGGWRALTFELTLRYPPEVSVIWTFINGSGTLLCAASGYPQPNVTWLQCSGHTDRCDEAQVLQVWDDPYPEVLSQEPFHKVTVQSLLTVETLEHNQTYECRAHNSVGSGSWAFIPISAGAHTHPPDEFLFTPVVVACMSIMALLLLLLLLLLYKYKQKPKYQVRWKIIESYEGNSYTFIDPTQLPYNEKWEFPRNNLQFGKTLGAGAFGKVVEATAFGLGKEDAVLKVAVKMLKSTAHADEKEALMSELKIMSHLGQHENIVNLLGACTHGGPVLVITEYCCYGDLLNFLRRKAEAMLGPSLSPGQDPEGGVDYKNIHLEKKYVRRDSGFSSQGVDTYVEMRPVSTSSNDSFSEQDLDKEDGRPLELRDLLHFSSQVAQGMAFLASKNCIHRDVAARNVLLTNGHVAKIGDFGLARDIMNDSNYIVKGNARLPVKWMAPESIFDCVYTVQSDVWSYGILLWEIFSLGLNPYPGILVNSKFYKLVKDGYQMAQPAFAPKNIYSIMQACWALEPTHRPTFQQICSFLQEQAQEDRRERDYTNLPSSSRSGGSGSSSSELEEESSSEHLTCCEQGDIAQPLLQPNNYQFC

SMILES | IC50
CCCn1cc(OCC2CNC2)c(C(=O)Nc2ccc(Oc3ccnc4cc(OC)c(OC)cc34)cn2)n1 [Compound 159] | ≥ 1 µM
COc1cc2nccc(Oc3ccc(NC(=O)c4nn(C5CC5)cc4OCC4COC4)nn3)c2cc1OC [Compound 161] | ≥ 1 µM
COc1cc2nccc(Oc3ccc(NC(=O)c4nn(C5CC5)cc4OCC(F)(F)F)nn3)c2cc1OC [Compound 112] | 0.5 to 1 µM
COc1cc2nccc(Oc3ccc(NC(=O)c4nn(CCN)cc4OCC(F)(F)F)cn3)c2cc1OC [Compound 135] | ≥ 1 µM
CCCn1cc(OCCN(C)C)c(C(=O)Nc2ccc(Oc3ccnc4cc(OC)c(OC)cc34)c(F)c2)n1 [Compound 165] | ≥ 1 µM
COc1cc2nccc(Oc3ccc(NC(=O)c4nn(CCOC5CC5)cc4OCC(F)(F)F)c(F)c3)c2cc1OC [Compound 115] | 0.5 to 1 µM
CNCCn1cc(OCC(F)(F)F)c(C(=O)Nc2ccc(Oc3ccnc4cc(OC)c(OC)cc34)c(F)c2)n1 [Compound 155] | ≥ 1 µM
COc1cc2nccc(Oc3ccc(NC(=O)c4nn(C5CCN(C)C5)cc4OCC(F)(F)F)cc3)c2cc1OC (centres unmarked) [Compound 100] | ≥ 1 µM
CCCn1cc(OCC(F)(F)F)c(C(=O)Nc2ccc(Oc3ccnc4cc(OC)c(OC)cc34)c(C(F)(F)F)c2)n1 [Compound 114] | ≥ 1 µM
COc1cc2nccc(Oc3ccc(NC(=O)c4nn(C5CCNC5)cc4OCC(F)(F)F)cn3)c2cc1OC (centres unmarked) [Compound 132] | ≥ 1 µM
COc1cc2nccc(Oc3ccc(NC(=O)c4nn(CCOC5CC5)cc4OCC(F)(F)F)nn3)c2cc1OC [Compound 120] | 0.5 to 1 µM
COc1cc2nccc(Oc3ccc(NC(=O)c4nn(CCO)cc4OCC(F)(F)F)cn3)c2cc1OC [Compound 129] | ≥ 1 µM
COCCOc1cn(CC(C)O)nc1C(=O)Nc1ccc(Oc2ccnc3cc(OC)c(OC)cc23)cn1 (centres unmarked) [Compound 150] | ≥ 1 µM
COc1cc2nccc(Oc3ccc(NC(=O)c4nn(C5CCN(C)C5)cc4OCC(F)(F)F)cc3C)c2cc1OC (centres unmarked) [Compound 98] | ≥ 1 µM
CCn1cc(OCC(F)(F)F)c(C(=O)Nc2ccc(Oc3ccnc4cc(OC)c(OC)cc34)cn2)n1 [Compound 4] | < 0.5 µM
COc1cc2nccc(Oc3ccc(NC(=O)c4nn(C5CCNC5)cc4OCC(F)(F)F)nn3)c2cc1OC (centres unmarked) [Compound 122] | ≥ 1 µM

Results, then the compound that gave them:

IC50 | SMILES
< 0.5 µM | COc1cc2nccc(Oc3ccc(NC(=O)c4nn(C5CCCC5)cc4OCC(F)(F)F)nn3)c2cc1OC [Compound 121]
0.5 to 1 µM | COc1cc2nccc(Oc3ccc(NC(=O)c4nn(C5CC5)cc4OCC4CCC4)nc3)c2cc1OC [Compound 111]
0.5 to 1 µM | COc1cc2nccc(Oc3ccc(NC(=O)c4nn(C5CCN(C)C5)cc4OCC(F)(F)F)nn3)c2cc1OC (centres unmarked) [Compound 157]
< 0.5 µM | COc1cc2nccc(Oc3ccc(NC(=O)c4nn(C5CC5)cc4NCC(F)(F)F)nc3)c2cc1OC [Compound 145]
< 0.5 µM | COc1cc2nccc(Oc3ccc(NC(=O)c4nn(C5CC5)cc4OC(C)C)nc3)c2cc1OC [Compound 108]
< 0.5 µM | CCCn1cc(OCCOC)c(C(=O)Nc2ccc(Oc3ccnc4cc(OC)c(OC)cc34)cn2)n1 [Compound 105]
< 0.5 µM | CCn1cc(OCC2CCC2)c(C(=O)Nc2ccc(Oc3ccnc4cc(OC)c(OC)cc34)cn2)n1 [Compound 8]
< 0.5 µM | COc1cc2nccc(Oc3ccc(NC(=O)c4n[nH]cc4OCC(F)(F)F)nc3)c2cc1OC [Compound 16]
< 0.5 µM | CCCn1cc(OCC(F)F)c(C(=O)Nc2ccc(Oc3ccnc4cc(OC)c(OC)cc34)cn2)n1 [Compound 12]
< 0.5 µM | COc1cc2nccc(Oc3ccc(NC(=O)c4nn(C5CC5)cc4OCC(F)F)nn3)c2cc1OC [Compound 162]
